Assay results taken from patent EP0834302A1, “Compositions comprising glutathione liposomes” (Boehringer Ingelheim Limited, priority 1996, dated 1998).

What was measured:
[1] = Depth of glutathione penetration into the skin: tape stripping with DPPH anti-free radical assay
Description: The depth of glutathione penetration into the skin was determined by comparing two different galenic forms: free glutathione in solution (FG) and glutathione encapsulated in a liposome (LG). Since glutathione is a highly reactive free radical scavenger, its presence even in small quantities can be detected by spectroscopic methods.
Gluthione preparations are applied to the skin, and tape strippings are taken after some fixed interval of time. The tape strippings are assayed for anti-free radical activity by DPPH (1,1 Diphenyl-2-picrylhydrazyl) at 8.76 x 10^-3 % (w/v) in methanol) colouration/ discolouration tests (Kim et al. Proc. 17th IFSCC Congress (Yokohama), Vol. 1: 3-14, 1994). […]
On the arms of each volunteer, the 3 test sites were determined in a random way: one site for application of water (negative control), one for application of free glutathione (FG) and one for application of liposome encapsulated glutathione (LG). […]
5 tape strippings were carried out on the control sites after 2µl/cm^2 application of distilled water and a light massage. […] The change in colour was measured on a spectrophotometer at 517nm.
Each test solution was then applied to the designated sites (2µl/cm^2) by slight massaging and left to dry for 30 minutes. […] Colour changes were recorded as described above.

[2] = tested on: UVB induced skin erythema; settings: applied topically in a simple oil-in-water emulsion or as a gel preparation; Int. J. Cos. Sci. 17:91-103, 1995; cited from earlier work

Row | Structure (SMILES) | Tape strips containing residual scavenger activity, Mean value ([1]; in vivo) | depth of penetration ([1]; result in words, presence of DPPH reactive substances on successive strips) | inhibiting UVB induced skin erythema [2]
1 | N[C@@H](CCC(=O)N[C@@H](CS)C(=O)NCC(=O)O)C(=O)O [FG, Reduced glutathione] | 1.3 | absence of significant penetration | 
2 | N[C@@H](CCC(=O)N[C@@H](CS)C(=O)NCC(=O)O)C(=O)O [Glutathione] |  |  | ineffective
